Values belong to the compound of their own block, whether it stands above or below them.
Assays:
Autotaxin [1] = target: T1, Autotaxin (Homo sapiens, UniProt Q13822); experiment: Inhibition of human ATX using LPC as substrate measured after 2 hrs by fluorescence based choline release assay
Autotaxin [2] = target: T1, Autotaxin; experiment: Inhibition of recombinant human ATX expressed in Sf9 cells using FS-3 as substrate measured after 1 hrs by fluorescence based assay
Autotaxin [3] = target: T1, Autotaxin; experiment: Inhibition of human ATX using FS-3 as substrate measured after 1 hrs by fluorescence based […] assay
Autotaxin [4] = target: T1, Autotaxin; experiment: Inhibition of ATX (unknown origin) using […] as substrate
Autotaxin [5] = target: T1, Autotaxin; experiment: Inhibition of ATX in human blood; type: tissue-based
Autotaxin [6] = target: Autotaxin (Mus musculus, UniProt Q9R1E6); experiment: Inhibition of ATX in mouse plasma; type: cell-free
Autotaxin [7] = target: T1, Autotaxin; experiment: Inhibition of human ATX using LPC as substrate assessed as choline release measured after 1.5 hrs by fluorescence based assay
Autotaxin [8] = target: T1, Autotaxin; experiment: Inhibition of human ATX using LPC as substrate preincubated for 30 mins followed by substrate addition measured after 90 mins by choline release assay
[9] = Inhibition of hen egg white ATX using LPC as substrate preincubated for 30 mins followed by substrate addition measured after 90 mins by choline release assay; set-up: species or system Gallus gallus
Autotaxin [10] = target: T1, Autotaxin; experiment: Inhibition of ATX (unknown origin) using FS-3 as substrate

IC50 (Autotaxin [4]): 1.1 nM
IC50 (Autotaxin [5]): 8.9 nM
IC50 (Autotaxin [6]): 22 nM
Compound: CCCn1cc(-n2c(C)c(Sc3cccc(C(=O)O)c3F)c3ccc(Cl)c(F)c32)cn1

IC50 (Autotaxin [7]): 2 nM
Compound: Cc1c(Sc2cccc(C(=O)O)c2F)c2ccc(Cl)c(F)c2n1C(=O)N1CC2(CC2)c2ccccc21

IC50 (Autotaxin [10]): 2.7 nM
Compound: CCc1nc2c(C)cc(-c3ccc(C(=O)N4CCN(CCO)CC4)cc3)cn2c1NC(=O)OCc1ccc2c(c1)OCO2

The remaining lines, values behind:

Compound: O=C(Nc1cccc(F)c1)c1cc(S(=O)(=O)N2CCOCC2)c(Cl)cc1Cl
IC50 (Autotaxin [1]): 43.6 nM

Compound: CS(=O)(=O)N(c1cc(C(=O)Nc2cc(F)c(Cl)c(F)c2)c(Cl)cc1Cl)C1CCOCC1
IC50 (Autotaxin [2]): 218 nM

Compound: O=C(Nc1ccc(Br)cc1)c1cc(S(=O)(=O)N2CCCCC2)c(Cl)cc1Cl
IC50 (Autotaxin [1]): 23 nM
IC50 (Autotaxin [3]): 21 nM

Compound: N#CC1=C(N)Oc2n[nH]c(-c3ccc(OCc4ccc(F)cc4)cc3)c2[C@H]1c1ccc(Cl)c(Cl)c1
IC50 (Autotaxin [8]): 134 nM
IC50 [9]: 87 nM

Compound: CS(=O)(=O)N(c1cc(C(=O)Nc2cc(F)c(F)c(F)c2)c(Cl)cc1Cl)C1CCOCC1
IC50 (Autotaxin [2]): 219 nM
